In article PMC8869358, “High-Throughput Chemical Screening and Structure-Based Models to Predict hERG Inhibition” (Biology, 2022):
Where a name gives a salt, the structure may show the parent alone.

Target: hERG (Homo sapiens, UniProt Q12809)
Test: cell-based
Details: (-LOG10(IC50), µM)

Sequence of hERG (Q12809 whole entry): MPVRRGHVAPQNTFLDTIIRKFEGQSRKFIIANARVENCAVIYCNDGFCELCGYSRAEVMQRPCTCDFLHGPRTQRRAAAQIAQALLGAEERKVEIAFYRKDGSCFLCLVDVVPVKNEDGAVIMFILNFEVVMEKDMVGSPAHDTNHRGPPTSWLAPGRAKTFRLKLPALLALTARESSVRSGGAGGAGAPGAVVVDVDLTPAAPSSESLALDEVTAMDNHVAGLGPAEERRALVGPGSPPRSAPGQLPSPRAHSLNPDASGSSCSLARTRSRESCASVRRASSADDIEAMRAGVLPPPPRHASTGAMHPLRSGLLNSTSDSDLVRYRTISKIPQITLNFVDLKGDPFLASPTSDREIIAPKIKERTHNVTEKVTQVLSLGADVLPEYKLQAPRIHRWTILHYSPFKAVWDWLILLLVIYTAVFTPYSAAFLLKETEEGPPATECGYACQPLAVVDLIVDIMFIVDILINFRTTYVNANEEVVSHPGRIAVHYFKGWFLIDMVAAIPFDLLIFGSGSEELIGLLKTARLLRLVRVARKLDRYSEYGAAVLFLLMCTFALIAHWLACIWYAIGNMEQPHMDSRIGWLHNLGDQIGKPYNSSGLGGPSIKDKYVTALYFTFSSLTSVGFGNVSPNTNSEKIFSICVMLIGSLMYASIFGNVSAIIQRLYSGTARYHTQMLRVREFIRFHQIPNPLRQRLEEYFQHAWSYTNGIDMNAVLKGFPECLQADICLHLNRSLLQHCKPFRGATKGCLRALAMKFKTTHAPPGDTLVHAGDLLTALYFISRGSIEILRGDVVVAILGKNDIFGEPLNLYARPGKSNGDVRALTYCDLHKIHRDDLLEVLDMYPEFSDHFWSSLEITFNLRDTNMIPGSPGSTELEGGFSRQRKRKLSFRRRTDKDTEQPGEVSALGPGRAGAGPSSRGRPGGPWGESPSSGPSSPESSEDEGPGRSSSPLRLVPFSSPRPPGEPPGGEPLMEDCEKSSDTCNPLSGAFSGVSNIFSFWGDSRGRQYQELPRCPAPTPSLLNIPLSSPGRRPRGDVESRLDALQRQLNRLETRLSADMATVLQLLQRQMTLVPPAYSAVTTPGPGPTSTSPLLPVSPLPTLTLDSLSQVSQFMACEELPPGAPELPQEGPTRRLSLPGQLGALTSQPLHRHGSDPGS

| Compound | IC50 [µM] |
| --- | --- |
| N#Cc1ccc(CC(=NNC(=O)Nc2ccc(OC(F)(F)F)cc2)c2cccc(C(F)(F)F)c2)cc1 [Metaflumizone] | 13.3 |
| Cc1nccn1-c1ccc(Sc2cccc(C3(C(N)=O)CCOCC3)c2)cc1 [CJ-013610] | 47.1 |
| Cc1ccc(Cl)c(OCC(O)CNC(C)(C)C)c1 (centres unmarked) [Bupranolol] | 20.1 |
| C=C(Cl)CSC(=S)N(CC)CC [Sulfallate] | 51.5 |
| CC[C@@H]([C@H](C)O)n1ncn(-c2ccc(N3CCN(c4ccc(OC[C@@H]5CO[C@@](Cn6cncn6)(c6ccc(F)cc6F)C5)cc4)CC3)cc2)c1=O [Posaconazole] | 12.9 |
| CCCCCCCCCCCCc1ccc(O)cc1 [4-Dodecylphenol] | 19.5 |
| Cc1c(Cl)c(=O)oc2cc(OP(=O)(OCCCl)OCCCl)ccc12 [Haloxon] | 22.1 |
| C=CCC1=C(C)[C@@H](OC(=O)[C@@H]2[C@@H](C=C(C)C)C2(C)C)CC1=O [S-Bioallethrin] | 23.6 |
| OCCN1CCN(CC/C=C2/c3ccccc3Sc3ccc(C(F)(F)F)cc32)CC1 [cis-Flupentixol] | 1.69 |
| C#CCOS(=O)OC1CCCCC1Oc1ccc(C(C)(C)C)cc1 (centres unmarked) [Propargite] | 20.7 |
| CCc1nn(C)c(C(=O)NCc2ccc(C(C)(C)C)cc2)c1Cl [Tebufenpyrad] | 24.5 |
| NCCNc1cccc2ccccc12 [N-(1-Naphthyl)ethylenediamine dihydrochloride] | 40.2 |
| CC(C)(C)C1(CCc2ccc(Cl)cc2)CO1 (centres unmarked) [2-(2-(4-Chlorophenyl)ethyl)-2-(1,1-dimethylethyl)oxirane] | 23.2 |
| COc1cc2c(cc1OC)-c1c/c(=N\c3c(C)cc(C)cc3C)n(C)c(=O)n1CC2 [Trequinsin hydrochloride] | 14 |
| CCN(CC)CCOc1ccc(C(O)(Cc2ccc(Cl)cc2)c2ccc(C)cc2)cc1 (centres unmarked) [Triparanol] | 1.11 |
| CCCCC(CC)CN1C(=O)C2C3C=CC(C3)C2C1=O (centres unmarked) [Octylbicycloheptenedicarboximide] | 49 |
| CC[C@]12CCCN3CCc4c(n(c5ccccc45)[C@@](O)(C(=O)OC)C1)[C@@H]32 [Vincamine] | 1.33 |
| C[C@]12CC[C@@H]3c4ccc(O)cc4CC[C@H]3[C@@H]1CC[C@@H]2OC(=O)CCC1CCCC1 [Estradiol cypionate] | 43.6 |
| O[Si](c1ccccc1)(c1ccccc1)c1ccccc1 [Triphenylsilanol] | 21.9 |
| CN(C)CCOc1ccccc1Cc1ccccc1 [Phenyltoloxamine citrate] | 8.49 |
| O=C1c2ccccc2C(=O)N1CCc1noc(-c2ccc(CN3CCCCCC3)s2)n1 [PharmaGSID_48172] | 23.4 |

| Compound | IC50 [µM] |
| --- | --- |
| CCCCCCCCCCCCN [Dodecylamine hydrochloride] | 13.3 |
| CCCCCCCCCCCCN(CCO)CCO [Lauryldiethanolamine] | 11.8 |
| CC(C(O)c1ccc(O)cc1)N1CCC(Cc2ccccc2)CC1 (centres unmarked) [Ifenprodil] | 7 |
| CCCC(=O)O[C@]1(C(=O)CCl)[C@@H](C)C[C@H]2[C@@H]3CCC4=CC(=O)C=C[C@]4(C)[C@@]3(F)C(=O)C[C@@]21C [Clobetasone butyrate] | 8.01 |
| CN(C)c1ccc(C(=C2C=CC(=[N+](C)C)C=C2)c2ccc(N(C)C)cc2)cc1 [Gentian Violet] | 2.79 |
| O=[N+]([O-])c1ccc(Oc2ccc(C(F)(F)F)cc2[N+](=O)[O-])cc1 [Fluorodifen] | 7.76 |
| CCN1CCN(c2cc(-c3ccc(F)cc3)c3c(n2)CCCCCC3)CC1 [Blonanserin] | 3.99 |
| C[C@@H]1CC(=O)NN=C1c1ccc(NN=C(C#N)C#N)cc1 [Levosimendan] | 5.67 |
| CN1C(CSCC(F)(F)F)Nc2cc(Cl)c(S(N)(=O)=O)cc2S1(=O)=O (centres unmarked) [Polythiazide] | 19.7 |
| CCCCCCCCCCCC[N+](C)(C)CCOc1ccccc1 [Domiphen bromide] | 1.34 |
| O=[N+]([O-])c1cccc(S(=O)(=O)NCCNS(=O)(=O)c2cccc([N+](=O)[O-])c2)c1 [Dinsed] | 14.5 |
| C=CC(=O)OCC1CC2CC1C1CCC(COC(=O)C=C)C21 (centres unmarked) [Tricyclodecanedimethanol diacrylate] | 36 |
| CCCCCCCCCCCCCCCCCC[n+]1ccn(C)c1 [1-Methyl-3-octadecylimidazolium hexafluorophosphate] | 4.02 |
| CC(C(O)c1ccccc1)N(C)C/C=C/c1ccccc1 (centres unmarked) [Cinnamedrine] | 12 |
| CCCCCCOC(=O)c1ccccc1O [Hexyl salicylate] | 18.8 |
| CCCCOCCOC(=O)COc1cc(Cl)c(Cl)cc1Cl [2,4,5-T-butotyl] | 23.2 |
| CCCN1C[C@H](CSC)C[C@@H]2c3cccc4[nH]cc(c34)C[C@H]21 [Pergolide methanesulfonate] | 7.56 |
| O=CC=C(c1ccccc1)c1ccccc1 [3,3-Diphenylacrylaldehyde] | 42.4 |
| OC1(c2ccc(Cl)c(C(F)(F)F)c2)CCN(CCCC(c2ccc(F)cc2)c2ccc(F)cc2)CC1 [Penfluridol] | 0.239 |
| c1ccc(C(O[C@@H]2CCCN(CCc3ccc4c(c3)OCO4)C2)c2ccccc2)cc1 [Zamifenacin] | 0.838 |
| Cc1cc(CCN2CCN(c3nsc4ccccc34)CC2)cc2c1NC(=O)CC2(C)C [PD 0343701] | 16.1 |

| Compound | IC50 [µM] |
| --- | --- |
| CC(C)C(OC(=O)c1ccccc1)C(C)(C)COC(=O)c1ccccc1 (centres unmarked) [2,2,4-Trimethylpentane-1,3-diyl dibenzoate] | 21.9 |
| O=P(OCC(Br)CBr)(OCC(Br)CBr)OCC(Br)CBr (centres unmarked) [Tris(2,3-dibromopropyl) phosphate] | 16.9 |
| CCCCCCCCCCCCCCCCCC[N+](C)(C)Cc1ccccc1 [N,N-Dimethyl-N-benzyl-N-octadecylammonium chloride] | 4.41 |
| C/C=C\C/C=C/CCCCCCCCOC(C)=O [(E,Z)-Tetradeca-9,12-dienyl acetate] | 36.7 |
| O=C(OCCN1CCOCC1)c1cccnc1Nc1cccc(C(F)(F)F)c1 [Morniflumate] | 10.3 |
| FC(F)(F)c1cccc(C2=CCN(CCc3ccc4ccccc4c3)CC2)c1 [Xaliproden hydrochloride] | 1.76 |
| COC(=O)[C@@H]1[C@H]2C[C@H]3c4[nH]c5ccccc5c4CCN3C[C@@H]2CC[C@@H]1O [Yohimbine] | 23.9 |
| CCOC(=O)C(C)Oc1ccc(Oc2nc3ccc(Cl)cc3o2)cc1 (centres unmarked) [Fenoxaprop-ethyl] | 30.9 |
| CN(C)CCOC(c1ccccc1)c1ccc(Br)cc1 (centres unmarked) [Bromodiphenhydramine] | 4.09 |
| O=C1CN=C(c2ccccc2)c2cc(Cl)ccc2N1CC1CC1 [Prazepam] | 23 |
| CCCCN(CCCC)CC(O)c1cc(Cl)cc2c1-c1ccc(Cl)cc1/C2=C/c1ccc(Cl)cc1 (centres unmarked) [Lumefantrine] | 3.65 |
| CN1[C@@H]2CC[C@H]1C[C@@H](OC(=O)c1cc(Cl)cc(Cl)c1)C2 [Bemesetron] | 6.01 |
| CN(C)C(=O)NC1(c2ccccc2)CCN(CC[C@@]2(c3ccc(F)c(F)c3)CN(C(=O)c3ccccc3)CCO2)CC1 [SR144190] | 20.3 |
| CN[C@H]1CC[C@@H](c2ccc(Cl)c(Cl)c2)c2ccc(S(N)(=O)=O)cc21 [UK-373911] | 6.92 |
| O=C(c1ccccc1)C(Cl)Cl [2,2-Dichloro-1-phenylethanone] | 36 |
| COc1ccc2c(c1OC)C(=O)O[C@@H]2[C@H]1c2cc3c(cc2CCN1C)OCO3 [Hydrastine] | 20.8 |
| CCOC(=O)COc1ccc2c(C)c(CCN(CC)CC)c(=O)oc2c1Cl [Cloricromen hydrochloride] | 20.5 |
| N#Cc1c(-c2ccc(Cl)cc2)[nH]c(C(F)(F)F)c1Br [Tralopyril] | 11 |
| CCCCCCCCCCCCc1ccccc1S(=O)(=O)O [Sodium dodecylbenzenesulfonate] | 24.5 |
| CCCCCCCCCCCC[N+](C)(C)C [Dodecyltrimethylammonium bromide] | 21 |
| CN1CCN(CCCN2c3ccccc3Sc3ccc(S(=O)(=O)N(C)C)cc32)CC1 [Thioproperazine dimethanesulfonate] | 4.96 |

| Compound | IC50 [µM] |
| --- | --- |
| CCCCCCCCOCCCN [3-(Octyloxy)propan-1-amine] | 43.6 |
| CC(C)Oc1cc(-n2nc(C(C)(C)C)oc2=O)c(Cl)cc1Cl [Oxadiazon] | 44.7 |
| CCCCCCC(C)OC(=O)COc1nc(F)c(Cl)c(N)c1Cl (centres unmarked) [Fluroxypyr-meptyl] | 38.9 |
| CC(C)Cc1ccc(C(C)C(=O)OCc2ccccn2)cc1 (centres unmarked) [Ibuprofen piconol] | 16.3 |
| Cc1ccc(C=C2C(=O)C3(C)CCC2C3(C)C)cc1 (centres unmarked) [Enzacamene] | 30.7 |
| CN1C[C@H](C(=O)N[C@]2(C)O[C@@]3(O)[C@@H]4CCCN4C(=O)[C@H](Cc4ccccc4)N3C2=O)C[C@@H]2c3cccc4[nH]cc(c34)C[C@H]21 [Dihydroergotamine] | 19 |
| CN1CCN(C2=Nc3ccccc3Sc3ccc(Cl)cc32)CC1 [Clothiapine] | 21.3 |
| Fc1ccc(C(c2ccc(F)cc2)N2CCNCC2)cc1 [1-(Bis(4-fluorophenyl)methyl)piperazine] | 19.7 |
| O=C1C(Cl)=C(Cl)C(=O)c2ccccc21 [Dichlone] | 21.9 |
| C[C@@H](C1=C(CCN(C)C)Cc2ccccc21)c1ccccn1 [(S)-(+)-Dimethindene maleate] | 13.4 |
| O=C1OC2(c3ccccc31)c1ccc(O)c(Br)c1Oc1c2ccc(O)c1Br [C.I. Solvent Red 72] | 34.7 |
| CCOC(=O)C(O)(c1ccc(Cl)cc1)c1ccc(Cl)cc1 [Chlorobenzilate] | 33.7 |
| CC(C)(C)C(O)(CCc1ccc(Cl)cc1)Cn1cncn1 (centres unmarked) [Tebuconazole] | 21.9 |
| CCOC(=O)COC(=O)c1cc(Oc2ccc(C(F)(F)F)cc2Cl)ccc1[N+](=O)[O-] [Fluoroglycofen-ethyl] | 13.8 |
| O=[N+]([O-])c1ccc(Oc2ccc([N+](=O)[O-])cc2)cc1 [1,1'-Oxybis(4-nitrobenzene)] | 32.8 |
| NNc1nc(-c2ccc([N+](=O)[O-])cc2)cs1 [2-Hydrazino-4-(4-nitrophenyl)thiazole] | 23.6 |
| COc1ccc(CN(CCN(C)C)c2ccccn2)cc1 [Pyrilamine] | 27.4 |
| CS/C(C)=N/OC(=O)N(C)SN(C)C(=O)O/N=C(\C)SC [Thiodicarb] | 43.6 |
| O=S1OC[C@@H]2[C@H](CO1)[C@]1(Cl)C(Cl)=C(Cl)[C@@]2(Cl)C1(Cl)Cl (some centres unmarked) [Endosulfan I] | 43.6 |
| C[C@]12CC[C@H]3[C@@H](CCC4=CC(=O)CC[C@@H]43)[C@@H]1CC[C@@H]2OC(=O)CCc1ccccc1 [Nandrolone phenpropionate] | 12.5 |
